Structures can show the parent of a compound that is named as a salt.
First: O=S(=O)(c1ccccc1)c1c[nH]c2c(C3CCNCC3)cccc12 [compound 301, 3-benzenesulfonyl-7-piperidin-4-yl-1H-indole]
Second: O=S(=O)(c1cccc(Cl)c1)c1c[nH]c2c(C3CCNCC3)cccc12 [compound 208, 3-(3-Chloro-benzenesulfonyl)-7-piperidin-4-yl-1H-indole]
The melting point of the first is lower: 186 to 189.5 °C for the first, 272.3 to 272.9 °C for the second.

Compared with `CN1CCN(c2cccc3c(S(=O)(=O)c4ccccc4C(F)(F)F)c[nH]c23)CC1` [compound 508, 7-(4-methyl-piperazin-1-yl)-3-(2-trifluoromethyl-benzenesulfonyl)-1H-indole], `CN1CCN(c2cccc3c(S(=O)(=O)c4ccccc4Cl)c[nH]c23)CC1` [compound 504, 3-(2-chloro-benzenesulfonyl)-7-(4-methyl-piperazin-1-yl)-1H-indole] is lower in melting point: 237.1 to 241.5 °C for the first, 168.5 to 175.9 °C for the second.

Compared with `Cc1[nH]c2c(N3CCNCC3)cccc2c1S(=O)(=O)c1ccccc1` [compound 601, 3-benzenesulfonyl-2-methyl-7-piperazin-1-yl-1H-indole], `Cc1[nH]c2c(N3CCNCC3)cccc2c1S(=O)(=O)c1ccc(Cl)cc1` [compound 602, 3-(4-chlorobenzenesulfonyl)-2-methyl-7-piperazin-1-yl-1H-indole] is lower in melting point: 188 to 190 °C for the first, 118 to 120 °C for the second.

Compared with `O=S(=O)(c1ccccc1C(F)(F)F)c1c[nH]c2c(N3CCNCC3)cccc12` [compound 109, 7-piperazin-1-yl-3-(2-trifluoromethyl-benzenesulfonyl)-1H-indole], `Cn1cc(S(=O)(=O)c2ccccc2C(F)(F)F)c2cccc(N3CCNCC3)c21` [compound 404, 1-methyl-7-piperazin-1-yl-3-(2-trifluoromethyl-benzenesulfonyl)-1H-indole] is higher in melting point: 186 to 187 °C for the first, 295 °C for the second.

First: Cn1cc(S(=O)(=O)c2cccc(Cl)c2)c2cccc(N3CCNCC3)c21 [compound 408, 3-(3-chloro-benzenesulfonyl)-1-methyl-7-piperazin-1-yl-1H-indole]
Second: Cn1cc(S(=O)(=O)c2cccc(C(F)(F)F)c2)c2cccc(N3CCNCC3)c21 [compound 406, 1-methyl-7-piperazin-1-yl-3-(3-trifluoromethyl-benzenesulfonyl)-1H-indole]
The melting point of the first is higher: 300 °C for the first, 279 to 280 °C for the second.

First: Cn1cc(S(=O)(=O)c2ccc(F)cc2)c2cccc(N3CCNCC3)c21 [compound 405, 3-(4-fluoro-benzenesulfonyl)-1-methyl-7-piperazin-1-yl-1H-indole]
Second: Cn1cc(S(=O)(=O)c2ccccc2)c2cccc(N3CCNCC3)c21 (as salt: hydrochloride) [compound 401, 3-benzenesulfonyl-1-methyl-7-piperazin-1-yl-1H-indole hydrochloride]
The melting point of the first is higher: 300 °C for the first, 249 to 250 °C for the second.

Compared with `CN1CCN(c2cccc3c(S(=O)(=O)c4ccccc4)c[nH]c23)CC1` (as salt: hydrochloride) [compound 501, 3-benzenesulfonyl-7-(4-methyl-piperazin-1-yl)-1H-indole], `CCCN1CCN(c2cccc3c(S(=O)(=O)c4ccccc4)c[nH]c23)CC1` [compound 512, 3-benzenesulfonyl-7-(4-propyl-piperazin-1-yl)-1H-indole] is higher in melting point: 160 to 162 °C for the first, 290 to 295 °C for the second.

First: O=S(=O)(c1ccccn1)c1c[nH]c2cc(N3CCNCC3)ccc12
Second: O=S(=O)(c1ccccn1)c1c[nH]c2c(N3CCNCC3)cccc12
The melting point of the first is higher: 246.7 to 247.2 °C for the first, 198 to 199 °C for the second.

`CN1CCN(c2cccc3c(S(=O)(=O)c4ccc(Cl)cc4Cl)c[nH]c23)CC1` [compound 506, 3-(2,4-dichloro-benzenesulfonyl)-7-(4-methyl-piperazin-1-yl)-1H-indole] and `CN1CCN(c2cccc3c(S(=O)(=O)c4ccc(Cl)c(Cl)c4)c[nH]c23)CC1` [compound 503, 3-(3,4-dichloro-benzenesulfonyl)-7-(4-methyl-piperazin-1-yl)-1H-indole] cannot be ordered by melting point: 199 to 203 °C for the first, 196 to 203 °C for the second.

First: O=S(=O)(c1ccc(C(F)(F)F)cc1)c1c[nH]c2ccc(N3CCNCC3)cc12 [compound 203, 5-piperazin-1-yl-3-(4-trifluoromethyl-benzenesulfonyl)-1H-indole]
Second: O=S(=O)(c1ccc(F)cc1)c1c[nH]c2ccc(N3CCNCC3)cc12 [compound 207, 3-(4-fluoro-benzenesulfonyl)-5-piperazin-1-yl-1H-indole]
The melting point of the first is lower: 274.9 to 280.9 °C for the first, 289 to 291 °C for the second.

First: Cn1cc(S(=O)(=O)c2ccccc2Cl)c2cccc(N3CCNCC3)c21 [compound 407, 3-(2-chloro-benzenesulfonyl)-1-methyl-7-piperazin-1-yl-1H-indole]
Second: Cn1cc(S(=O)(=O)c2ccccn2)c2cccc(N3CCNCC3)c21 [compound 402, 1-methyl-7-piperazin-1-yl-3-(pyridine-2-sulfonyl)-1H-indole]
The melting point of the first is lower: 295 to 297 °C for the first, 297 to 298 °C for the second.

First: COc1ccc(S(=O)(=O)c2c(C)[nH]c3c(N4CCNCC4)cccc23)cc1 [compound 604, 3-(4-methoxybenzenesulfonyl)-2-methyl-7-piperazin-1-yl-1H-indole]
Second: Cc1[nH]c2c(N3CCNCC3)cccc2c1S(=O)(=O)c1ccc(F)cc1 [compound 603, 3-(4-fluorobenzenesulfonyl)-2-methyl-7-piperazin-1-yl-1H-indole]
The melting point of the first is lower: 182 to 184 °C for the first, 232 to 236 °C for the second.

First: CN1CCN(c2cccc3c(S(=O)(=O)c4cc(Cl)cc(Cl)c4)c[nH]c23)CC1 [compound 507, 3-(3,5-dichloro-benzenesulfonyl)-7-(4-methyl-piperazin-1-yl)-1H-indole]
Second: O=S(=O)(c1cc(Cl)cc(Cl)c1)c1c[nH]c2c(N3CCNCC3)cccc12 [compound 105, 3-(3,5-dichloro-benzenesulfonyl)-7-piperazin-1-yl-1H-indole]
The melting point of the first is lower: 237.1 to 241.5 °C for the first, 290 °C for the second.

Compared with `Cn1cc(S(=O)(=O)c2ccccn2)c2cc(N3CCNCC3)ccc21` [compound 416, 1-methyl-5-piperazin-1-yl-3-(pyridine-2-sulfonyl)-1H-indole], `Cn1cc(S(=O)(=O)c2ccc(F)cc2)c2cc(N3CCNCC3)ccc21` [compound 413, 3-(4-fluoro-benzenesulfonyl)-1-methyl-5-piperazin-1-yl-1H-indole] is lower in melting point: 256.8 to 257.5 °C for the first, 195 to 207 °C for the second.

First: O=S(=O)(c1ccc(Cl)c(Cl)c1)c1c[nH]c2c(N3CCNCC3)cccc12 [compound 103, 3-(3,4-dichloro-benzenesulfonyl)-7-piperazin-1-yl-1H-indole]
Second: O=S(=O)(c1ccc(Cl)cc1Cl)c1c[nH]c2c(N3CCNCC3)cccc12 [compound 106, 3-(2,4-dichloro-benzenesulfonyl)-7-piperazin-1-yl-1H-indole]
The melting point of the first is lower: 290 °C for the first, 300 °C for the second.

Compared with `O=S(=O)(c1ccc(F)cc1)c1c[nH]c2c(N3CCNCC3)cccc12` [compound 104, 3-(4-fluoro-benzenesulfonyl)-7-piperazin-1-yl-1H-indole], `Cc1ccc(S(=O)(=O)c2c[nH]c3c(N4CCNCC4)cccc23)cc1` [compound 102, 7-piperazin-1-yl-3-(toluene-4-sulfonyl)-1H-indole] is higher in melting point: 247 to 249 °C for the first, 285 to 287 °C for the second.

Compared with `Cn1cc(S(=O)(=O)c2cccc(C(F)(F)F)c2)c2cc(N3CCNCC3)ccc21` [compound 410, 1-methyl-5-piperazin-1-yl-3-(3-trifluoromethyl-benzenesulfonyl)-1H-indole], `c1ccc(Sc2c[nH]c3ccc(N4CCNCC4)cc23)cc1` is higher in melting point: 235 to 240 °C for the first, 246 to 247 °C for the second.

First: Clc1cccc(Sc2c[nH]c3ccc(N4CCNCC4)cc23)c1Cl
Second: c1ccc(Sc2c[nH]c3c(N4CCNCC4)cccc23)cc1
The melting point of the first is lower: 255.1 to 255.5 °C for the first, 300 °C for the second.

In the case of `CN1CCN(c2cccc3c(S(=O)(=O)c4ccccc4)cn(C)c23)CC1` [compound 502, 3-benzenesulfonyl-1-methyl-7-(4-methyl-piperazin-1-yl)-1H-indole], the melting point is reported as 260 to 262 °C.

In the case of `O=S(=O)(c1cc(Cl)cc(Cl)c1)c1c[nH]c2ccc(N3CCNCC3)cc12` [compound 205, 3-(3,5-dichloro-benzenesulfonyl)-5-piperazin-1-yl-1H-indole], the melting point is reported as greater than 300 °C.
`O=S(=O)(c1cccc(Cl)c1Cl)c1c[nH]c2ccc(N3CCNCC3)cc12` [compound 202, 3-(2,3-dichloro-benzenesulfonyl)-5-piperazin-1-yl-1H-indole] showed a melting point greater than 300 °C.

— patent US6787535B2, “Indole derivatives with 5HT6 receptor affinity” (Syntex (U.S.A.) LLC, priority 2001, dated 2004)
